Values joined by “and” are separate entries in the source; they are usually repeats but may differ in a detail not shown here. Equal entries are not always repeated. Inconclusive results and toxic doses are left out. How the source made its calls: active means survival T/C of 150% or more; inactive means T/C below 125% in these data.
System: P388 leukemia ip, CD2F1 mice, survival T/C
Test: NCI In Vivo Anticancer Drug Screen. Data for tumor model P388 Leukemia (intraperitoneal) in CD2F1 (CDF1) mice
Conditions: endpoint: median survival time, higher = longer survival
In short: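 Mice carrying the transplanted tumor received test compound or vehicle. Survival was recorded in each group, and the value is the treated-group measurement divided by that of the vehicle-treated control group.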

[1] = dose: 60.0 mg/kg/injection, schedule: Q01DX005 (ip), vehicle: Klucel (hydroxypropylcellulose) (HPC)
[2] = dose: 120.0 mg/kg/injection, schedule: Q01DX005 (ip), vehicle: Klucel (hydroxypropylcellulose) (HPC)
[3] = dose: 240.0 mg/kg/injection, schedule: Q01DX005 (ip), vehicle: Klucel (hydroxypropylcellulose) (HPC)
[4] = dose: 100.0 mg/kg/injection, schedule: Q01DX009 (ip), vehicle: saline
[5] = dose: 200.0 mg/kg/injection, schedule: Q01DX009 (ip), vehicle: saline
[6] = dose: 50.0 mg/kg/injection, schedule: Q01DX009 (ip), vehicle: saline
[7] = dose: 60.0 mg/kg/injection, schedule: Q01DX005 (ip), vehicle: saline with Tween-80
[8] = dose: 120.0 mg/kg/injection, schedule: Q01DX005 (ip), vehicle: saline with Tween-80
[9] = dose: 240.0 mg/kg/injection, schedule: Q01DX005 (ip), vehicle: saline with Tween-80
[10] = dose: 50.0 mg/kg/injection, schedule: Q01DX009 (ip), vehicle: saline with Tween-80
[11] = dose: 100.0 mg/kg/injection, schedule: Q01DX009 (ip), vehicle: saline with Tween-80
[12] = dose: 200.0 mg/kg/injection, schedule: Q01DX009 (ip), vehicle: saline with Tween-80
[13] = dose: 50.0 mg/kg/injection, schedule: Q01DX005 (ip), vehicle: saline with Tween-80
[14] = dose: 100.0 mg/kg/injection, schedule: Q01DX005 (ip), vehicle: saline with Tween-80
[15] = dose: 50.0 mg/kg/injection, schedule: Q01DX009 (ip), vehicle: Klucel (hydroxypropylcellulose) (HPC)
[16] = dose: 100.0 mg/kg/injection, schedule: Q01DX009 (ip), vehicle: Klucel (hydroxypropylcellulose) (HPC)
[17] = dose: 200.0 mg/kg/injection, schedule: Q01DX009 (ip), vehicle: Klucel (hydroxypropylcellulose) (HPC)
[18] = dose: 12.5 mg/kg/injection, schedule: Q01DX009 (ip), vehicle: saline with Tween-80
[19] = dose: 25.0 mg/kg/injection, schedule: Q01DX009 (ip), vehicle: saline with Tween-80

Measured: T/C

O=C/C(=C\O)NC(=O)c1ccccc1C(=O)O
inactive: [1] 99 % of control | [2] 99 % of control | [3] 92 % of control

CC(=O)C1(C)CC=CCC1C(=O)O (stereo unspecified)
inactive: [4] 100 % of control | [5] 100 % of control | dose: 400.0 mg/kg/injection, schedule: Q01DX009 (ip), vehicle: saline 100 % of control

Cc1ccc(CCn2c3c(c4cc(Cl)ccc42)CN(C)CC3)cn1
inactive: [6] 99 % of control | [4] 102 % of control

COc1ccccc1C(=O)Nc1c(C)cccc1Cl
inactive: [7] 100 % of control | [8] 103 % of control | [9] 94 % of control

O=C/C=C/c1cccc([N+](=O)[O-])c1
inactive: [10] 113 % of control | [11] 113 % of control | [12] 104 % of control

CN(C)CCCSc1nnc(-c2ccc3c(c2)OCO3)o1
inactive: dose: 50.0 mg/kg/injection, schedule: Q04DX002 (ip), vehicle: water 106 % of control | dose: 100.0 mg/kg/injection, schedule: Q04DX002 (ip), vehicle: water 100 % of control | dose: 200.0 mg/kg/injection, schedule: Q04DX002 (ip), vehicle: water 101 % of control

C=C1C[C@](C(N)=O)(C2OC3OC(C)(C)OC3C2OCc2ccccc2)OC1=O (stereo partly specified)
inactive: dose: 25.0 mg/kg/injection, schedule: Q01DX005 (ip), vehicle: saline with Tween-80 103 % of control | [13] 100 % of control | dose: 100.0 mg/kg/injection, schedule: Q01DX001 (ip), vehicle: saline with Tween-80 96 % of control | [14] 92 % of control

CNC(=O)C1CCC(=O)N1Cc1c[nH]c2ccccc12 (stereo unspecified)
inactive: [7] 94 % of control | [8] 94 % of control | [9] 92 % of control

CCN(CC)c1ccc(CCc2ccc(N(CC)CC)c3cccnc23)c2ncccc12
inactive: dose: 50.0 mg/kg/injection, schedule: Q01DX005 (ip), vehicle: Klucel (hydroxypropylcellulose) (HPC) 99 % of control | dose: 100.0 mg/kg/injection, schedule: Q01DX005 (ip), vehicle: Klucel (hydroxypropylcellulose) (HPC) 112 % of control | dose: 200.0 mg/kg/injection, schedule: Q01DX005 (ip), vehicle: Klucel (hydroxypropylcellulose) (HPC) 94 % of control

COc1cc2c(cc1OC)C(C#N)(Cc1cccc3ccccc13)N(C(=O)c1ccccc1)C=C2 (stereo unspecified)
inactive: [7] 99 % of control | [8] 101 % of control | [9] 99 % of control

Nc1nc2nc3c(nc2c(=O)[nH]1)CCCC3
inactive: [7] 101 % of control | [8] 92 % of control | [9] 90 % of control

CC(=O)NNc1ccc(Cl)cc1[N+](=O)[O-]
inactive: [15] 96 % of control | [16] 101 % of control

CC(=O)OCc1cc(-c2nc3ccccc3[nH]c2=O)nn1-c1ccc(Cl)cc1
inactive: dose: 25.0 mg/kg/injection, schedule: Q01DX005 (ip), vehicle: distilled water + alcohol 93 % of control | dose: 50.0 mg/kg/injection, schedule: Q01DX005 (ip), vehicle: distilled water + alcohol 90 % of control | dose: 100.0 mg/kg/injection, schedule: Q01DX005 (ip), vehicle: distilled water + alcohol 86 % of control | dose: 200.0 mg/kg/injection, schedule: Q01DX005 (ip), vehicle: distilled water + alcohol 87 % of control

O=C1c2ccccc2CCC1Br (stereo unspecified)
inactive: dose: 1.56 mg/kg/injection, schedule: Q01DX009 (ip), vehicle: DMSO 113 % of control | dose: 6.25 mg/kg/injection, schedule: Q01DX009 (ip), vehicle: DMSO 99 % of control and 103 % of control | dose: 12.5 mg/kg/injection, schedule: Q01DX009 (ip), vehicle: DMSO 102 % of control

NC(Cc1ccccc1)C(=O)Nc1ccncc1 (stereo unspecified)
inactive: dose: 12.5 mg/kg/injection, schedule: Q01DX001 (ip), vehicle: saline 105 % of control | dose: 25.0 mg/kg/injection, schedule: Q01DX001 (ip), vehicle: saline 106 % of control | dose: 50.0 mg/kg/injection, schedule: Q01DX001 (ip), vehicle: saline 103 % of control

COC(=O)C1NC(C(O)C(O)C(O)C(O)CO)SC1(C)C (stereo unspecified)
inactive: [6] 94 % of control | [4] 102 % of control | [5] 100 % of control

Cc1ccc(S(=O)(=O)OC(C#N)c2ccccc2)cc1 (stereo unspecified)
inactive: [15] 111 % of control | [16] 102 % of control | [17] 100 % of control | dose: 400.0 mg/kg/injection, schedule: Q01DX009 (ip), vehicle: Klucel (hydroxypropylcellulose) (HPC) 106 % of control

Cc1ccc([N+](=O)[O-])cc1NC(=O)COc1ccc(Cl)cc1
inactive: dose: 100.0 mg/kg/injection, schedule: Q04DX003 (ip), vehicle: saline with Tween-80 100 % of control | dose: 200.0 mg/kg/injection, schedule: Q04DX003 (ip), vehicle: saline with Tween-80 90 % of control | dose: 400.0 mg/kg/injection, schedule: Q04DX003 (ip), vehicle: saline with Tween-80 90 % of control

CCOC(=O)C1(C)C(=O)C=C(c2ccccc2)CC1c1ccccc1 (stereo unspecified)
inactive: [13] 95 % of control | [14] 100 % of control | dose: 200.0 mg/kg/injection, schedule: Q01DX005 (ip), vehicle: saline with Tween-80 95 % of control

Oc1c(-c2ccccc2)cc(-c2ccc(Br)cc2)c(-c2ccc(Br)cc2)c1-c1ccccc1
inactive: [18] 107 % of control | [19] 95 % of control | [10] 98 % of control | [11] 105 % of control | [12] 96 % of control

Cc1onc(-c2ccccc2)c1C(C)(O)c1ccccc1 (stereo unspecified)
inactive: dose: 100.0 mg/kg/injection, schedule: Q01DX001 (ip), vehicle: Klucel (hydroxypropylcellulose) (HPC) 90 % of control | dose: 200.0 mg/kg/injection, schedule: Q01DX001 (ip), vehicle: Klucel (hydroxypropylcellulose) (HPC) 93 % of control | dose: 400.0 mg/kg/injection, schedule: Q01DX001 (ip), vehicle: Klucel (hydroxypropylcellulose) (HPC) 88 % of control

O=C(Cn1cnc2c(=S)nc[nH]c21)Oc1ccc([N+](=O)[O-])cc1
inactive: [18] 109 % of control | [19] 100 % of control | dose: 25.0 mg/kg/injection, schedule: Q04DX003 (ip), vehicle: saline with Tween-80 91 % of control | [10] 100 % of control | dose: 50.0 mg/kg/injection, schedule: Q04DX003 (ip), vehicle: saline with Tween-80 91 % of control

Nc1nc(/C=C\c2ccccc2)cc(-c2cc(/C=C\c3ccccc3)nc(N)n2)n1
inactive: dose: 30.0 mg/kg/injection, schedule: Q01DX005 (ip), vehicle: Klucel (hydroxypropylcellulose) (HPC) 97 % of control | [1] 90 % of control and 94 % of control | [2] 97 % of control | [3] 95 % of control

COc1cc2c(cc1OC)C1C(CO)c3ccc(OC)c(OC)c3CN1CC2 (stereo unspecified)
inactive: dose: 50.0 mg/kg/injection, schedule: Q04DX003 (ip), vehicle: distilled water + Tween-80 96 % of control | dose: 100.0 mg/kg/injection, schedule: Q04DX003 (ip), vehicle: distilled water + Tween-80 93 % of control | dose: 200.0 mg/kg/injection, schedule: Q04DX003 (ip), vehicle: distilled water + Tween-80 87 % of control | dose: 400.0 mg/kg/injection, schedule: Q04DX003 (ip), vehicle: distilled water + Tween-80 91 % of control

CCCCNC1=CC(=S)NC(C)(C)C1
inactive: [15] 104 % of control | [16] 86 % of control | [17] 104 % of control

CC(/C=C/c1ccc(Cl)cc1)=N\NC(N)=O
inactive: [7] 94 % of control | [8] 99 % of control | [9] 99 % of control

O=C(O)c1cc(OCc2ccccc2)cc(OCc2ccccc2)c1
inactive: [7] 96 % of control | [8] 102 % of control | [9] 106 % of control

O=C1CC(=O)N2C(=O)CC(=O)N12
inactive: [7] 99 % of control | [8] 103 % of control | [9] 97 % of control

From PubChem BioAssay AID330 (DTP/NCI, 2004)
